How the values were obtained:
[1] = Toxicity test of GGa-ICG (serum enzymatic testing); type: in vivo; details: serum of nude mice 72 hours after injection
Experimental: Blood serum was collected from nude mice injected with GGa-ICG for 72 hours and subjected to enzymatic testing.

PC-3 cells = assay: Endocytosis experiment; type: cell-based, human; details: 37° C. vs 4° C., trypsin wash
Experimental: PC-3 cells were incubated with 200 nM GGa-ICG or ssDNA-ICG in 200 μL binding buffer at 37° C. for 10 minutes to observe cell membrane binding. After 2 hours of incubation, the cells were treated with 0.25% trypsin or 0.1 mg/mL proteinase K at 37° C. for 10 minutes to observe internal binding.
For inhibition of endocytosis, PC-3 cells were incubated with 200 nM GGa-ICG or ssDNA-ICG in 200 μL binding buffer at 4° C. for 2 hours to observe cell membrane binding. After 4 hours of incubation, the cells were treated with 0.25% trypsin or 0.1 mg/mL proteinase K at 37° C. for 10 minutes to observe internal binding.

cells = assay: MTT experiment (in vitro cell toxicity); type: cell-based; details: 2-20 times the Kd value concentration
Experimental: MTT assay was used to measure the in vitro cell toxicity in a 96-well plate. In brief, cells (6×10^3 cells per well) were treated with GGa-ICG (at concentrations of 0, 20, 200 nM, 10 μM, etc.), free drugs, or hybrids in the culture medium (RPMI1640 without FBS, unless otherwise specified; 37° C.; 5% CO2). […]

[2] = Water solubility compared to ICG; type: physicochemical
[3] = test system: tumor cell lines with elevated PSCA expression; assay: Flow cytometry binding to other tumor cell lines; type: cell-based
Excerpt: (§1) PSCA is expressed at high levels in various tumors such as prostate cancer, bladder cancer, kidney cancer, breast cancer, colon cancer, lung cancer, pancreatic cancer, etc. Using the aforementioned method, T24 bladder cancer cells, Cakil renal cancer cells, MDA-MB468 breast cancer cells, HT29 colon cancer cells, PANC1 pancreatic cancer cells, NCI-H460 lung cancer cells, and other cell lines were stained with GGa-ICG for flow cytometry analysis. Positive cell lines were used to establish subcutaneous transplantation tumor models to detect the visualization of GGa-ICG in vivo.

PSCA on PC-3 cells = target: T1, PSCA on PC-3 cells (Homo sapiens, UniProt O43653); assay: Antibody competition experiment by flow cytometry; type: cell-based; details: 200 nM GGa-ICG, 10 μg/mL anti-PSCA-FITC
T1 construct: Membrane proteins of PC-3 cells were extracted; endogenous in cells; host or cells: PC-3
T1 sequence (O43653 12-83): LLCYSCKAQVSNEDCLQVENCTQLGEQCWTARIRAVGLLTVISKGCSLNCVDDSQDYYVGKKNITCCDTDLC
Experimental: A suspension of 5×10^5 cells of PC-3 or other cell lines was incubated with 200 nM of GGa-ICG or anti-PSCA-FITC antibody in 100 μL of binding buffer on ice for 30 minutes, washed again, and subjected to flow cytometry analysis (FACS Calibur instrument, BD Biosciences): 10,000 events were collected for each sample. ICG-labeled ssDNA-ICG was used as a negative control. For the antibody competition experiment, 5×10^5 cells were incubated with 200 nM of GGa-ICG in binding buffer on ice for 30 minutes, followed by the addition of 10 μg/mL of anti-PSCA-FITC antibody and further incubation for 30 minutes as the GGa-ICG blocking group. 10 μg/mL of anti-PSCA-FITC was incubated in binding buffer on ice for […], followed by the addition of 200 nM of GGa-ICG and further incubation for 30 minutes as the anti-PSCA-FITC blocking group. Both 200 nM of GGa-ICG and 10 μg/mL of anti-PSCA-FITC antibody were incubated on ice for 30 minutes as the combined group. After washing, the cells were resuspended and subjected to flow cytometry analysis.
To confirm the results of the mass spectrometry, the location of GGa-ICG and PSCA on PC-3 cells was first examined. To achieve this, PC-3 cells were incubated with […].

[4] = test system: subcutaneous transplantation tumor models; assay: In vivo visualization in subcutaneous transplantation tumor models of other cancers
Excerpt: as §1

RWPE-1, MCF2, Hela cells = assay: Cell binding by fluorescence microscope / flow cytometry, non-tumour prostate and other cells; type: cell-based, human; details: 200 nM probe
Experimental: Therefore, 200 nM of GGa-ICG and ssDNA-ICG were used to confirm their specific binding. The method is as follows: • a. The human prostate cancer cell lines PC-3, DU145, LNCaP, 22RV1, immortalized normal human prostate epithelial cell line RWPE1, and human cervical cancer cell line Hela, as well as MCF7 cells obtained from the American Type Culture Collection (ATCC), were used in this study. All cell lines were cultured at 37° C. and 5% CO2 in a humidified environment. […]
After the cells reach a confluency of over 80%, they were passaged and grown for 24-48 hours until they reached a confluency of over 50%. They were then washed once with PBS (without Ca and Mg ions), twice with cold washing buffer, and incubated at room temperature (4° C. for the internalization inhibition group) for 30 minutes with the sample buffer containing near-infrared fluorescence probes GGa-ICG, ssDNA-ICG, and ICG to a final concentration of 200 nM (or as specified). The cells were observed under a fluorescence microscope or analyzed by flow cytometry after digestion with trypsin without EDTA. […]

GGa-ICG: near-infrared probe: PSCA-binding nucleic acid aptamer GGa linked at 3′ to an ICG derivative dye (DNA TGCCACTACAGCTGGTTCGGTTTGGTGACTTCGTTCTTCGTTGTGGT; 3'-ICG dye, further chemistry not given here)
in vivo toxicity (serological test) [1]: did not show in vivo toxicity | mode of cell entry (PC-3 cells): enters cells through endocytosis | cell inhibition in MTT experiment (cells): no significant cell inhibition | water solubility compared to existing ICG [2]: improved | binding to tumor cell lines with elevated PSCA expression [3]: could bind | relationship with PSCA antibody in flow cytometry (PSCA on PC-3 cells): competitive relationship | in vivo binding in multiple cancer types [4]: consistent with PSCA expression | binding affinity to RWPE-1, MCF2, Hela cells (RWPE-1, MCF2, Hela cells): significantly reduced binding affinity
